Measured values published in patent US20220184222A1, “BICYCLE TOXIN CONJUGATES AND USES THEREOF” (BicycleTx Limited, priority 2019, published 2022).
Where “and” joins values, the source holds several entries; their conditions need not be identical. Equal values may be shown once.

Tested on: PC-3 xenograft
Assay: In vivo efficacy in PC-3 xenograft, male Balb/c nude mice (Example 3)
Parameters: species or system Mus Musculus
Protocol: The objective of the research is to evaluate the in vivo anti-tumor efficacy of test articles in treatment of PC-3 xenograft in Balb/c nude mice.
The tumor cells were maintained in F-12K medium supplemented with 10% heat inactivated fetal bovine serum at 37° C. in an atmosphere of 5% CO2 in air. The tumor cells were routinely subcultured twice weekly. The cells growing in an exponential growth phase were harvested and counted for tumor inoculation.
Each mouse was inoculated subcutaneously at the right flank with PC-3 tumor cells (10×10^6) in 0.2 ml of PBS for tumor development. 52 animals were randomized when the average tumor volume reached 454 mm^3. The test article administration and the animal numbers in each group were shown in the experimental design table.
The major endpoint was to see if the tumor growth could be delayed or mice could be cured. Tumor volume was measured three times weekly in two dimensions using a caliper, and the volume was expressed in mm3 using the formula: V=0.5 a×b^2 where a and b are the long and short diameters of the tumor, respectively. The tumor size was then used for calculations of T/C value. The T/C value (in percent) is an indication of antitumor effectiveness; T and C are the mean volumes of the treated and control groups, respectively, on a given day.
TGI was calculated for each group using the formula: TGI (%)=[1−(Ti−T0)/(Vi−V0)]×100; Ti is the average tumor volume of a treatment group on a given day, T0 is the average tumor volume of the treatment group on the day of treatment start, Vi is the average tumor volume of the vehicle control group on the same day with Ti, and V0 is the average tumor volume of the vehicle group on the day of treatment start.
Tumor growth inhibition rate for test articles in the PC-3 xenograft model was calculated based on tumor volume measurements at day 20 after the start of the treatment.

[1] = 15 mpk i.v. qw (treatment suspended after the first dosing), day 20

With CC(=O)O[C@@]12CO[C@@H]1C[C@H](O)[C@@]1(C)C(=O)[C@H](O)C3=C(C)[C@@H](OC(=O)[C@H](O)[C@@H](NC(=O)OC(C)(C)C)c4ccccc4)C[C@@](O)([C@@H](OC(=O)c4ccccc4)[C@H]21)C3(C)C [Docetaxel, reference compound] the “tumor relapse after ceasing the treatment” value (15 mg/kg qw) was “obvious tumor relapse”, the “animal body weight loss” value (15 mg/kg qw, after the first dosing) was “severe animal body weight loss” and the Tumor volume (15 mpk i.v. qw (treatment suspended after the first dosing), day 0) was 453 mm^3. For the same compound, the Tumor volume (15 mpk i.v. qw (treatment suspended after the first dosing), day 2) was 584 mm^3, the Tumor volume (15 mpk i.v. qw (treatment suspended after the first dosing), day 4) was 632 mm^3 and the Tumor volume (15 mpk i.v. qw (treatment suspended after the first dosing), day 6) was 636 mm^3. The Tumor volume (15 mpk i.v. qw (treatment suspended after the first dosing), day 8) was 568 mm^3, the Tumor volume (15 mpk i.v. qw (treatment suspended after the first dosing), day 10) was 408 mm^3 and the Tumor volume (15 mpk i.v. qw (treatment suspended after the first dosing), day 13) was 374 mm^3. The Tumor volume (15 mpk i.v. qw (treatment suspended after the first dosing), day 15) was 388 mm^3, the Tumor volume (15 mpk i.v. qw (treatment suspended after the first dosing), day 17) was 361 mm^3 and the T/C [1] was 17.7%. The TGI [1] was 101.8% and the Tumor volume [1] was 419 mm^3 and 419 ± 31 mm^3.
